[C12U] = 2'-deoxyuridine carrying a dodecyne (lipid) modification
How the values were obtained:
[1] = In-vitro adhesion to porcine eye; details: NPs 20 μM, 15 minutes incubation, thoroughly washed in PBS
Protocol: In order to further gauge the adherence of different nanoparticles (NPs) to the eye surface, porcine eyes were obtained from the local slaughterhouse and exposed to the different NPs. The NPs were prepared as described in example 1, section 1.2, at a concentration of 20 μM. The porcine eye was transferred to a 6-well plate and 2 rings of different diameter were placed on top of the cornea to prevent spillage of the NP solution. Subsequently, 50 μl of NP solution was put on top of the cornea and incubated for 15 minutes. Afterwards, the rings were removed using tweezers and the eyes were thoroughly washed in PBS (PAA, Germany). The eye was divided into two along the visual axis. Of the two halves one was stored in formaldehyde, whereas the other was frozen in Tissue Tek, cut on a cryostat, stained with DAPI and photographed as described in example 1. To determine the binding capabilities of the NPs, they were exposed to porcine eyes obtained from the local slaughterhouse. For comparison the NPs from example 1 were included in the experiments. After 15 minutes of incubation with the NPs, the porcine eye was thoroughly washed in PBS buffer and frozen in tissue tek. The adhesion to the cornea was evaluated by fluorescence microscopy (See FIG. 8).

[2] = tested on: corneal epithelium of living rats; assay: Adhesion of fluorescently labelled DNA amphiphile NP eye drops to the cornea of living rats; format: in vivo, rat; details: for Number of NP positive eyes out of total number eyes: 20 μM, conscious rats; for adhesion to the cornea (fluorescence images of cryo sections): in-vivo rat eye
Protocol: Adult Lister Hooded Rats were obtained from Harlan Winkelmann, Germany. For the eye drop applications the conscious rats were very shortly fixated and a drop was administered to the eye using a single drop device as in medical applications. Blinking of the eyes was not hindered during drop application or afterwards. After the designated incubation time-point the rat were sacrificed with carbon dioxide inhalation.
After the predetermined time point the animal was sacrificed and the eyes were enucleated and frozen in Tissue-Tek O.C.T. (Sakura Finetek, Germany) in liquid nitrogen. Frozen sections were longitudinally cut (12 μm) on a cryostat (Leica CM 1900, Germany), thaw-mounted onto glass slides (Superfrost plus, R. Langenbrinck Labor- and Medizintechnik, Germany) and stored at −30° C. until further use. Further processing was performed using standard procedures. Briefly, for visualisation sections were fixed with methanol and to stain nuclei, sections were further incubated in a solution containing 0.2 μg/ml 4′,6-diamidino-2-phenylindol (DAPI) for 1 min. Stained sections were embedded in FluorSave (Calbiochem, Germany) and imaged using a fluorescent microscope (Axioplan2 Imaging®, Zeiss, Germany with the Openlab software, Improvision, Germany).^33 Animals were treated according to the Principles of laboratory animal care (NIH publication No. 85-23, revised 1985), the OPRR Public Health Service Policy on the Human Care and Use of Laboratory Animals (revised 1986) and the German animal protection law (Research permission AK3/11 to S.S.)
The eye drops containing the different fluorescently labelled DNA amphiphiles at a concentration of 20 μM were administered to conscious rats using a single drop of 30 μL and 30 min, 2 or 24 h after application the animals were sacrificed. Cryo sections of the treated eyes were prepared and imaged using fluorescence microscopy. As controls, single stranded (ss) and double stranded (ds) DNA lacking the lipid-modified nucleotide were administered as eye drops in the same fashion. Selection of the best carrier was performed by comparing the number of DNA amphiphile stained eyes to the total number of eyes to which eye drops were given and, in the case of an equal amount of positives, by visual comparison of the cryo sections (see Table 3).
After selection of U4T-12 as the best carrier, the adherence time on the cornea was evaluated (see FIG. 3). The NPs of U4T-12 are already observed 5 min after application of the eye drops, thus showing a fast adherence to the cornea. Then the NPs are present for a period of at least four hours because distinct green fluorescence of the carrier was clearly visible. […] After these successful proof-of-concept experiments we applied U4T-12 aptamer-functionalized carriers loaded with neomycinB or kanamycinB because these two antibiotics are currently used for treatment of ophthalmic indications. For localization of the drug loaded carrier the aptamer was functionalized with a red fluorescent dye at the 5′ end. The eye drops were administered as described earlier and the adherence to the cornea was studied 5, 15 and 30 minutes after application (see FIG. 4).

[3] = 30 min after a single 30 μL eye drop
[4] = 2 hours after a single 30 μL eye drop
[5] = 24 hours after a single 30 μL eye drop
[6] = rat, eye drops, green fluorescence of the carrier

U2M-12: amphiphile with sequence TCCUUGGCGCAG, lipid modified nucleotides situated inside the chain (lipid-modified nucleotides inside the chain, which positions not given here, further chemistry not given here)
adherence to the porcine cornea (fluorescence microscopy) [1]: hardly any adherence

U2T-12: lipid modified oligonucleotide UUTGGCGGATTC (5′→3′), U = dodecyne modified deoxyuridine; forms micellar NPs (DNA, [C12U] at 1, 2, backbone and methylation of C not given here; forms micellar nanoparticles)
Number of NP positive eyes out of total number eyes [2, 3]: 2/4 | Number of NP positive eyes out of total number eyes [2, 4]: 0/4 | Number of NP positive eyes out of total number eyes [2, 5]: 0/4 | adhesion to the cornea (fluorescence images of cryo sections) ([2]; eye drops): adhere significantly less

U4T-12: lipid modified oligonucleotide UUUUGCGGATTC (5′→3′), U = dodecyne modified deoxyuridine; forms micellar NPs (DNA, [C12U] at 1, 2, 3, 4, backbone and methylation of C not given here; forms micellar nanoparticles)
Number of NP positive eyes out of total number eyes [2, 3]: 6/6 | Number of NP positive eyes out of total number eyes [2, 4]: 4/6 | Number of NP positive eyes out of total number eyes [2, 5]: 0/4 | adhesion to the cornea (fluorescence images of cryo sections) ([2]; eye drops): best attachment | adherence time on the cornea (period NPs are present) [2, 6]: at least four | time after application of the eye drops at which NPs are already observed on the cornea [2, 6]: ≤ 5 min | adherence to the porcine cornea (fluorescence microscopy) [1]: good adherence

U4T-18: lipid modified oligonucleotide UUUUGCGGATTCGTCTGC (5′→3′), U = dodecyne modified deoxyuridine (DNA, [C12U] at 1, 2, 3, 4, backbone and methylation of C not given here)
Number of NP positive eyes out of total number eyes [2, 3]: 4/5 | Number of NP positive eyes out of total number eyes [2, 4]: 0/4 | Number of NP positive eyes out of total number eyes [2, 5]: 0/4

U6T-12: lipid modified oligonucleotide UUUUUUGGATTC (5′→3′), U = dodecyne modified deoxyuridine (DNA, [C12U] at 1, 2, 3, 4, 5, 6, backbone and methylation of C not given here)
Number of NP positive eyes out of total number eyes [2, 3]: 3/3 | Number of NP positive eyes out of total number eyes [2, 4]: 1/4 | Number of NP positive eyes out of total number eyes [2, 5]: 0/1 | adhesion to the cornea (fluorescence images of cryo sections) ([2]; eye drops): adhere significantly less

U6T-20: lipid modified oligonucleotide UUUUUUGCGGATTCGTCTGC (5′→3′), U = dodecyne modified deoxyuridine (DNA, [C12U] at 1, 2, 3, 4, 5, 6, backbone and methylation of C not given here)
Number of NP positive eyes out of total number eyes [2, 3]: 2/2 | Number of NP positive eyes out of total number eyes [2, 4]: 1/3 | Number of NP positive eyes out of total number eyes [2, 5]: 0/3
